Patent publication US9932341B2, “Use of pyrazolopyrimidine derivatives for the treatment of PI3K-delta related disorders” (Incyte Corporation, priority 2013, dated 2018)
Counter-ions that a name gives are not always drawn.

Target: PI3Kδ (p110δ/p85α) (Homo sapiens (Human), UniProt O00329)
Experiment: PI3Kδ Scintillation Proximity Assay (Example A3)
Assay type: biochemical
Conditions: 20 μM ATP, 20 μM PIP2, 4 nM PI3Kδ, read-out: PI3Kδ SPA IC50
Method in brief: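 SPA with 4 nM p110δ/p85α, 20 μM PIP2, 20 μM ATP plus [γ-^33P]ATP, in 20 mM MOPS pH 6.7, 10 mM MgCl2, 5 mM DTT, 0.03% CHAPS, 0.5% DMSO, room temperature. Stopped with EDTA/ATP, WGA SPA beads, overnight shaking, scintillation counting. IC50 from % control activity vs log concentration.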

PI3Kδ (p110δ/p85α), sequence (O00329 whole entry): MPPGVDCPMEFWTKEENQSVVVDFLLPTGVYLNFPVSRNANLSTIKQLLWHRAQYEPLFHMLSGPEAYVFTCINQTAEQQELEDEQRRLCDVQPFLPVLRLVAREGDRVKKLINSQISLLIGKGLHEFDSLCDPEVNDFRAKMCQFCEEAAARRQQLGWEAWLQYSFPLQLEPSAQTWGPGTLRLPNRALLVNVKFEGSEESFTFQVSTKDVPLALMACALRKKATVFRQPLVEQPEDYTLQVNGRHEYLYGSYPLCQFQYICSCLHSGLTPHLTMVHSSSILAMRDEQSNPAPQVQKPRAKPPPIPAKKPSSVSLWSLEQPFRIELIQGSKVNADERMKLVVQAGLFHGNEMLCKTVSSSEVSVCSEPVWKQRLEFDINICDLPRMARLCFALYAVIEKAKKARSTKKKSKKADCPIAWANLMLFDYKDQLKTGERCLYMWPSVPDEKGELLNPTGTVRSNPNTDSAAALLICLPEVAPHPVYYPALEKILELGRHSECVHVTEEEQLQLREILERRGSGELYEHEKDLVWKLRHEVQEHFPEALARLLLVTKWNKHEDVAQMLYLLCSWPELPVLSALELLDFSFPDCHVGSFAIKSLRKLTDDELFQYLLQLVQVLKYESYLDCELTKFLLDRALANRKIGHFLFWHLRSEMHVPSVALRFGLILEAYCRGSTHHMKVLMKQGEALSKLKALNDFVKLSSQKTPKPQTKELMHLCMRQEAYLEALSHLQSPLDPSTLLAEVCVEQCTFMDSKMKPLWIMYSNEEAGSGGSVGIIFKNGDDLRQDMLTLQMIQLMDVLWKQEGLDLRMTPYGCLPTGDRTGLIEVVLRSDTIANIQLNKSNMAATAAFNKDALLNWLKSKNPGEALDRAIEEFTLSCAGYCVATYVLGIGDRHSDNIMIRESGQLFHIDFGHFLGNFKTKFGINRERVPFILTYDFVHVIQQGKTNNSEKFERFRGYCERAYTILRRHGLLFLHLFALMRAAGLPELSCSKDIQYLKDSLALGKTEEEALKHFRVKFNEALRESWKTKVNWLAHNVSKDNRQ
PI3Kδ (p110δ/p85α), sequence (P27986 whole entry partner): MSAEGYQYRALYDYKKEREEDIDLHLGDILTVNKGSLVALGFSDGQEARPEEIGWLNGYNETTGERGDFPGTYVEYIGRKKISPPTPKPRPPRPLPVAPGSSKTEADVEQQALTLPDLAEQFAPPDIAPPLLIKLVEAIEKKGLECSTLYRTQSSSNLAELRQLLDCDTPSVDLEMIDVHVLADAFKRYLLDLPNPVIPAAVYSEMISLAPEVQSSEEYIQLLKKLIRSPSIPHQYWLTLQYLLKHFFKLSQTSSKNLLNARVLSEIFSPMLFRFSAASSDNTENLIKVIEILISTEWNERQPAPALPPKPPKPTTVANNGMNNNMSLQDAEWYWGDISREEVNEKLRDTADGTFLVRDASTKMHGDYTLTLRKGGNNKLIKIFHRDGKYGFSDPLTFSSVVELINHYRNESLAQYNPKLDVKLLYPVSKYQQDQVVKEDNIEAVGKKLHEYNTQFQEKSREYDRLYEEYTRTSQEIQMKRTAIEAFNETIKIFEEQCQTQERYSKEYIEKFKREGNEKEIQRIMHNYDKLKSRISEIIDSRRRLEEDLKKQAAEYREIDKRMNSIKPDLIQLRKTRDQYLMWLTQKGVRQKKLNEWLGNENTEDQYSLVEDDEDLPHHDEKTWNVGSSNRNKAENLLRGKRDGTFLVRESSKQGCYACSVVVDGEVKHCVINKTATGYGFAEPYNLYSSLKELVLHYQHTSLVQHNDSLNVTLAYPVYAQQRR

SMILES	IC50
CCC(=O)N1CC(c2c(C)c(Cl)cc(C(C)n3nc(C)c4c(N)ncnc43)c2OC)C1 (stereo not drawn) [Example 3, 1-{1-[5-Chloro-2-methoxy-4-methyl-3-(1-propionylazetidin-3-yl)phenyl]ethyl}-3-methyl-1H-pyrazolo[3,4-d]pyrimidin-4-amine trifluoroacetate]	< 10 nM
COc1c(C(C)n2nc(C)c3c(N)ncnc32)cc(Cl)c(C)c1-c1ccc(C(=O)N(C)C)nc1 (stereo not drawn) [Example 11, 5-{3-[1-(4-Amino-3-methyl-1H-pyrazolo[3,4-d]pyrimidin-1-yl)ethyl]-5-chloro-2-methoxy-6-methylphenyl}-N,N-dimethylpyridine-2-carboxamide bis(trifluoroacetate)]	< 10 nM
CCOc1c(C(C)n2nc(C)c3c(N)ncnc32)cc(Cl)c(C)c1-c1ccc(C(=O)N(C)C)nc1 (stereo not drawn) [Example 14, 5-{3-[1-(4-Amino-3-methyl-1H-pyrazolo[3,4-d]pyrimidin-1-yl)ethyl]-5-chloro-2-ethoxy-6-methylphenyl}-N,N-dimethylpyridine-2-carboxamide bis(trifluoroacetate)]	< 10 nM
COc1c(C(C)n2nc(C)c3c(N)ncnc32)cc(Cl)c(C)c1-c1ccc(C(=O)NCCO)nc1 (stereo not drawn) [Example 23, 5-(3-(1-(4-amino-3-methyl-1H-pyrazolo[3,4-d]pyrimidin-1-yl)ethyl)-5-chloro-2-methoxy-6-methylphenyl)-N-(2-hydroxyethyl)picolinamide trifluoroacetate]	< 10 nM
CCOc1c(C(C)n2nc(C)c3c(N)ncnc32)cc(Cl)c(C)c1C1CN(C[C@H](C)O)C1 (stereo partly drawn) [Example 96, (2S)-1-(3-{3-[1-(4-Amino-3-methyl-1H-pyrazolo[3,4-d]pyrimidin-1-yl)ethyl]-5-chloro-2-ethoxy-6-methylphenyl}azetidin-1-yl)propan-2-ol bis(trifluoroacetate)]	< 10 nM
COc1c(C(C)n2nc(C)c3c(N)ncnc32)cc(Cl)c(C)c1C1CN(C(CO)C(F)(F)F)C1 (stereo not drawn) [Example 113, 2-(3-{3-[1-(4-Amino-3-methyl-1H-pyrazolo[3,4-d]pyrimidin-1-yl)ethyl]-5-chloro-2-methoxy-6-methylphenyl}azetidin-1-yl)-3,3,3-trifluoropropan-1-ol]	< 10 nM
CCOc1c(C(C)n2nc(C)c3c(N)ncnc32)cc(Cl)c(F)c1C1CN(C[C@H](C)O)C1 (stereo partly drawn) [Example 149, (2S)-1-(3-{3-[1-(4-Amino-3-methyl-1H-pyrazolo[3,4-d]pyrimidin-1-yl)ethyl]-5-chloro-2-ethoxy-6-fluorophenyl}azetidin-1-yl)propan-2-ol]	< 10 nM

More lines, now with the values ahead:

IC50	SMILES
< 10 nM	COc1c(C(C)n2nc(C)c3c(N)ncnc32)cc(Cl)c(C)c1C1CN(C(C)=O)C1 (stereo not drawn) [Example 2, 1-{1-[3-(1-Acetylazetidin-3-yl)-5-chloro-2-methoxy-4-methylphenyl]ethyl}-3-methyl-1H-pyrazolo[3,4-d]pyrimidin-4-amine trifluoroacetate]
< 10 nM	CCC(C)N1CC(c2c(C)c(Cl)cc(C(C)n3nc(C)c4c(N)ncnc43)c2OC)C1 (stereo not drawn) [Example 8, 1-{1-[3-(1-sec-butylazetidin-3-yl)-5-chloro-2-methoxy-4-methylphenyl]ethyl}-3-methyl-1H-pyrazolo[3,4-d]pyrimidin-4-amine]
< 10 nM	COc1c(C(C)n2nc(C)c3c(N)ncnc32)cc(Cl)c(F)c1C1CN(C)C1 (stereo not drawn) [Example 72]
< 10 nM	CCOc1c(C(C)n2nc(C)c3c(N)ncnc32)cc(Cl)c(C)c1C1CN(C(=O)[C@H](C)O)C1 (stereo partly drawn) [Example 99, (2S)-1-(3-{3-[1-(4-Amino-3-methyl-1H-pyrazolo[3,4-d]pyrimidin-1-yl)ethyl]-5-chloro-2-ethoxy-6-methylphenyl}azetidin-1-yl)-1-oxopropan-2-ol trifluoroacetate]
< 10 nM	CNC(=O)[C@@H](C)N1CC(c2c(C)c(Cl)cc(C(C)n3nc(C)c4c(N)ncnc43)c2OC)C1 (stereo partly drawn) [Example 110, (2R)-2-(3-{3-[1-(4-Amino-3-methyl-1H-pyrazolo[3,4-d]pyrimidin-1-yl)ethyl]-5-chloro-2-methoxy-6-methylphenyl}azetidin-1-yl)-N-methylpropanamide trifluoroacetate]
